In US5760001A, “Cytokine restraining agents and methods of use in pathologies and conditions associated with altered cytokine levels” (Trega Biosciences, Inc., priority 1995, dated 1998):
Several values for one entry are separate records, joined by “and”; a condition that tells them apart may be missing. Identical values can stand only once. Square brackets hold non-standard residues; d marks the D form. Peptide text beside a SMILES is read from it.

Experiments:
[1] = test system: TNF-α; experiment: Reduction of LPS-induced TNF levels in mice (IP dosing); format: in vivo; details: 150 μg/mouse IP before LPS 5 mg/kg IP; vs untreated control mice
Experimental: Balb/c female mice weighing approximately 20 g were placed into two groups, a control group and a treated group. Five mg/kg of LPS in 0.9% saline was administered by intraperitoneal (IP) injection into the control mice. Mice in the treated group were first injected IP with 30 μg EX-2 or 150 μg EX-3 in saline, then, one mn after EX-2 or EX-3 was administered, the mice received LPS as described for the control group.
Blood samples were collected from the orbital sinus of treated and control mice at various times up to four hr after LPS was administered. The plasma was separated by centrifugation at 3000×g for 5 min, then diluted with four volumes of 1× phosphate buffer saline (pH 7.4) containing 1% bovine serum albumin. A 100 μl sample of serum was assayed by ELISA for TNF-α (Genzyme; Cambridge Mass.).
The mean (±SEM) TNF-α level in six mice from each group was determined and the percent reduction in TNF levels was calculated.

[2] = test system: adult female Balb/c mice; experiment: Carageenan-induced paw swelling; format: in vivo; details: 1 μg/mouse; measured at the 2 hr time point
Experimental: Carageenan-induced paw swelling was induced using a modification of the methods of Hiltz and Lipton, Peptides 11:979-982 (1990); Vinegar et al., Fed. Proc. 46:118-1.26 (1987); and Vinegar et al., J. Pharmacol. Expt. Therap. 166:96-103 (1969), each of which is incorporated herein by reference. Briefly, adult female Balb/c mice were anesthetized by IP injection of 7 mg/kg ketoamine and 0.6 mg/kg rompun. Foot pad thickness was measured using a spring loaded micrometer (Swiss Precision Instruments). Foot pad thickness was expressed in units of 1/100 inch. After baseline measurements were obtained, mice were injected into a hind foot pad with either 0.2 ml physiologic saline (control) or varying doses of EX-2 or EX-3 in 0.2 ml saline (treated). The first injection was followed immediately by injection of 0.02 ml of 0.15% κ-carageenan (Sigma Chemical Co.; St. Louis, Mo.).
Hind foot pad thickness was measured hourly for six hr, the change in thickness was determined and the percent reduction in swelling due to treatment with EX-2 was calculated.

[3] = test system: adult female Balb/c mice; experiment: LPS-induced lethality (IP dosing); format: in vivo; details: 11 × 300 μg/mouse IP (3.3 mg), every 4 hr; 0.6 mg LPS; vs control mice
Experimental: These experiments were performed based on information reported by Rivier et al., Endocrinology 125:2800-2805 (1989), which is incorporated herein by reference. Adult female Balb/c mice were provided food and water ad libitum. Mice were injected IP every four hr for 40 hr with 30 to 300 μg EX-2, EX-3 or EX-4 in 0.2 ml saline (treated group) or with 0.2 ml saline, alone (control group) (10 mice per group). Immediately following the first injection, 0.6 mg LPS endotoxin in 0.2 ml saline was administered to each mouse. Following LPS injection, EX-2 or saline was administered to the treated mice or the control mice, respectively, every 4 hr for 36 hr.

[4] = test system: female Balb/c mice; experiment: Arachidonic acid-induced ear swelling; format: in vivo; details: 100 μg/mouse IP 30 min prior to AA; 60 min after AA application
Experimental: Experiments were performed using female Balb/c mice weighing 18-23 grams. Saline or 100 μg EX-2 or EX-3 was administered IP, 30 min prior to topical application of arachidonic acid (AA). A 10 μl pipet was used to apply 10 μl AA solution (100 mg/ml ethanol; Calbiochem-Novabiochem; San Diego Calif.) to the inner and outer surfaces of the right ear of each mouse. Ten μl ethanol, alone, was applied to the inner and outer surface of the left ear of each mouse.
Ear thickness was measured with a hand-held spring loaded caliper immediately before and 60 min after AA application. Increase in ear thickness was calculated by subtracting the change observed in the control ear from the change observed in AA-treated ear. The value for each group (saline and control) is the average of the swelling observed in the individual mice in each group. The percent reduction of swelling is based on the swelling observed in the saline control group.

[5] = test system: Male Shelton rabbits; experiment: Morphine-induced respiratory depression; format: in vivo; details: 10 + 20 + 20 μg/kg/rabbit iv; at end of experiment (80 min)
Experimental: Male Shelton rabbits (3-4 kg) were restrained and fitted around the thorax, just behind the front limbs, with a respiration transducer (Model F-RCT; Grass Instruments; Quincy Mass.). The transducer was connected to a grass polygraph via an EKG cable. An intravenous line was established for drug administration by cannulating the marginal ear vein using a 25G butterfly needle.
Rabbit breathing was allowed to stabilize, then. morphine sulfate (2 mg/kg in 0.5 ml saline) was administered by intravenous (iv) injection and respiratory rate and depth were monitored for 10 min. A second dose of morphine was administered, then, after 10 min, EX-2 or EX-3 (10 μg/kg in 0.5 ml saline) was administered, iv, and rabbits were monitored for 20 min. Two additional doses of EX-2 or EX-3 (20 μg/kg in 1.0 ml saline) were administered at 20 min intervals, i.e., 40 min and 60 min after the first morphine injection.
Results were calculated as the percent change from baseline values and are expressed as the difference of the mean value of the treated group minus the mean value of the control group at the end of the experiment (80 min).

[6] = test system: TNF-α; experiment: LPS-induced TNF-α levels, oral (gavage) dosing; format: in vivo, mice
Experimental: The ability of orally administered cytokine restraining agents to reduce LPS-induced TNF-α levels also was examined. Balb/c female mice (20 g) were administered 150 μg or 300 μg EX-2, EX-3, EX-5 or EX-6 in 100 μl saline by gavage. Control mice received 100 μl saline, alone. One mn later, 0.1 mg LPS was administered by IP injection. Samples were collected and TNF-α levels were determined as described in Example III, above.
The mean TNF-α levels in the mice from each group (n=9-20) was determined and the percent reduction in TNF-α levels was calculated.

[7] = test system: adult female Balb/c mice; experiment: LPS-induced lethality, oral (gavage) dosing; format: in vivo; details: control mice 0%
Experimental: The LPS-induced lethality studies were performed based on information reported by Rivier et al., supra, 1989. Adult female Balb/c mice were provided food and water ad libitum. Mice were administered 150 μg or 300 μg EX-2, EX-3, EX-5 or EX-6 in 100 μl saline by gavage every 4 hr for 40 hr (total doses of 1.65 mg and 3.3 mg, respectively). Control mice received 100 μl saline, alone. Immediately following the first dose of cytokines restraining agent or saline, 0.6 mg LPS in 0.2 ml saline was administered by IP injection.

[8] = 300 μg by gavage before 0.1 mg LPS IP

Structure (SMILES) | Reduction in TNF levels [1] | Inhibition of LPS-induced Lethality (increase in survival) [3] | percent reduction in TNF-α levels [6, 8] | further results
CC(=O)N[C@H](C(=O)N[C@@H](CCC(N)=O)C(=O)N[C@@H](Cc1c[nH]cn1)C(=O)N[C@H](Cc1ccccc1)C(=O)N[C@@H](CCCNC(=N)N)C(=O)N[C@H](Cc1c[nH]c2ccccc12)C(=O)NCC(N)=O)C1CCCCC1 [EX-3, Ac-(cyclohexyl)Gly-Gln-His-(D)Phe-Arg-(D)Trp-Gly-NH2] | 56% | 86% | 40% | Reduction in Carageenan-induced Paw Swelling [2]: 49%; Reduction in arachidonic acid-induced Ear Swelling [4]: 62%; Reduction in Morphine-induced Respiratory Depression [5]: 65%; percent reduction in TNF-α levels ([6]; 150 μg by gavage before 0.1 mg LPS IP): 49%
CC(=O)N[C@@H](Cc1c[nH]cn1)C(=O)N[C@H](Cc1ccccc1)C(=O)N[C@@H](CCCNC(=N)N)C(=O)N[C@H](Cc1c[nH]c2ccccc12)C(N)=O [EX-6, Ac-His-(D)Phe-Arg-(D)Trp-NH2] |  |  |  | increase in survival (LPS-induced lethality) ([7]; 1.65 mg total (150 μg every 4 hr for 40 hr)): 68%
CC(=O)N[C@@H](Cc1c[nH]cn1)C(=O)N[C@H](Cc1ccccc1)C(=O)N[C@@H](CCCNC(=N)N)C(=O)N[C@H](Cc1c[nH]c2ccccc12)C(=O)NCC(N)=O [EX-5, Ac-His-(D)Phe-Arg-(D)Trp-Gly-NH2] (Ac-H[dF]R[dW]G-NH2) |  |  | 44% | increase in survival (LPS-induced lethality) ([7]; 3.3 mg total (300 μg every 4 hr for 40 hr)): 63% and 44%
CC(=O)N[C@H](Cc1ccccc1)C(=O)N[C@@H](CCCNC(=N)N)C(=O)N[C@H](Cc1c[nH]c2ccccc12)C(N)=O [EX-4, Ac-(D)Phe-Arg-(D)Trp-NH2] | 53% | 75% |  | 
